This is an account of results in US7419780B2, “Methods and assays for screening protein targets” (The Trustees of Columbia University in the City of New York, priority 2000, dated 2008).

Holding throughout (type): cell-based, S. cerevisiae
Holding throughout (settings): 1 uM small molecule, difference to activity without small molecule, average of two trials

Assay [1] has as its target T1, LexA rGR2 / B42 (GSG)2eDHFR (UniProt P06536+P0ABQ4, C656G/F620S).
T1 construct: expressed in transfected cells; host or cells: S. cerevisiae FY250 with pMW106 lacZ reporter
T1 sequence (P06536 524-795 F620S/C656G limits assumed): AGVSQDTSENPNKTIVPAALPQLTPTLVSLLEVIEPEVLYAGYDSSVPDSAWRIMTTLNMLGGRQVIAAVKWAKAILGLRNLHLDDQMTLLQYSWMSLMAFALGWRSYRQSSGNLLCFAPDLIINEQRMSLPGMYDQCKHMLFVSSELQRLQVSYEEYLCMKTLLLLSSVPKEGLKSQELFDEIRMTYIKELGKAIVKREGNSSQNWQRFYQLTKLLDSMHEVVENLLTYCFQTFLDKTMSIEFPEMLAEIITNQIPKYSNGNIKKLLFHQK
T1 sequence (P0ABQ4 1-159): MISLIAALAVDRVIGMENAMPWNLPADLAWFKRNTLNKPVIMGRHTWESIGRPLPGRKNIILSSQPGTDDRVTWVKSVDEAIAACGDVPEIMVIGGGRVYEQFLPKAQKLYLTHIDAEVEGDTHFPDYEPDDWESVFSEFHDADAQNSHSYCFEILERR
Put plainly: β-galactosidase activity assay, strain V509Y. An excerpt:
(§1) Table III explains the components of each strain. Each strain was constructed from the parent yeast strain FY250 and also contains the pMW106 plasmid, which has the LacZ reporter gene that is turned on only in when the LexA DNA binding domain and the B42 activation are brought in tot he vicinity of each other. We use several different strains because we use DHFR from two different species, mDHFR is from murine, while eDHFR is from E. coli. We are asl oable to switch the small moleculebinding domains. For example, the strain containing LexA-eDHFR with B42-rGH2 is a different strain and behaves differently from the strain containing LexA-rGR2 with B42-eDHFR. We also put in short 6 amino acid linkers between the two domains of our protein chimeras and thus these are different strain as well.
(§2) The results in Table IV are averages of two separate trials. Each strain was examined with small molecules and without small molecules. The absolute activity is given as the β-galactisidase activity […]. The average β-galactosidse activity for a strain without small molecule (i.e. the negative control) was about 100 β-galactosidase units.

The target of assay [2] is T2, LexA (GSG)2eDHFR / B42 gly6rGR2 (UniProt P06536+P0ABQ4, C656G/F620S).
T2 construct: rat Glucocorticoid Receptor (aa 524-795) with point mutations; expressed in transfected cells; host or cells: S. cerevisiae FY250
T2 sequence (P0ABQ4 1-159): T1 sequence (P0ABQ4 1-159)
T2 sequence (P06536 524-795 F620S/C656G limits assumed): T1 sequence (P06536 524-795 F620S/C656G limits assumed)
The assay is described as follows: β-galactosidase activity assay, strain V499Y.
Source text: as §1, §2

The target of assay [3] is T3, LexA rGR2 / B42 (GSG)2mDHFR (UniProt P00375+P06536, C656G/F620S).
T3 construct: expressed in transfected cells; host or cells: S. cerevisiae FY250 with pMW106 lacZ reporter
T3 sequence (P06536 524-795 F620S/C656G limits assumed): T1 sequence (P06536 524-795 F620S/C656G limits assumed)
T3 sequence (P00375 1-187): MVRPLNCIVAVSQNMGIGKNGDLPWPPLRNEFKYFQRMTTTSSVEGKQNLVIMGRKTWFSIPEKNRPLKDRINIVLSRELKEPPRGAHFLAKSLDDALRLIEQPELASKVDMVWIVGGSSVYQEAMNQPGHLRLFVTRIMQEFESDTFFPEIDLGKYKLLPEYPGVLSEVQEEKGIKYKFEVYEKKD
Put plainly: β-galactosidase activity assay, strain V511Y.
Source text: as §1, §2

Assay [4] deals with T4, LexA mDHFR / B42 (GSG)rGR2 (UniProt P00375+P06536, C656G/F620S).
T4 construct: rat Glucocorticoid Receptor (aa 524-795) with point mutations; expressed in transfected cells; host or cells: S. cerevisiae FY250
T4 sequence (P00375 1-187): T3 sequence (P00375 1-187)
T4 sequence (P06536 524-795 F620S/C656G limits assumed): T1 sequence (P06536 524-795 F620S/C656G limits assumed)
The assay is described as follows: β-galactosidase activity assay, strain V497Y.
Source text: as §1, §2

The target in assay [5] is T5, LexA mDHFR / B42 gly6rGR2 (UniProt P00375+P06536, C656G/F620S).
T5 construct: rat Glucocorticoid Receptor (aa 524-795) with point mutations; expressed in transfected cells; host or cells: S. cerevisiae FY250
T5 sequence (P00375 1-187): T3 sequence (P00375 1-187)
T5 sequence (P06536 524-795 F620S/C656G limits assumed): T1 sequence (P06536 524-795 F620S/C656G limits assumed)
The assay is described as follows: β-galactosidase activity assay, strain V496Y.
Source text: as §1, §2

The target in assay [6] is T6, LexA eDHFR / B42 gly6rGR2 (UniProt P06536+P0ABQ4, C656G/F620S).
T6 construct: rat Glucocorticoid Receptor (aa 524-795) with point mutations; expressed in transfected cells; host or cells: S. cerevisiae FY250
T6 sequence (P0ABQ4 1-159): T1 sequence (P0ABQ4 1-159)
T6 sequence (P06536 524-795 F620S/C656G limits assumed): T1 sequence (P06536 524-795 F620S/C656G limits assumed)
The assay is described as follows: β-galactosidase activity assay, strain V375Y.
Source text: as §1, §2

In assay [7] the target is T7, LexA eDHFR / B42 (GSG)rGR2 (UniProt P06536+P0ABQ4, C656G/F620S).
T7 construct: rat Glucocorticoid Receptor (aa 524-795) with point mutations; expressed in transfected cells; host or cells: S. cerevisiae FY250
T7 sequence (P0ABQ4 1-159): T1 sequence (P0ABQ4 1-159)
T7 sequence (P06536 524-795 F620S/C656G limits assumed): T1 sequence (P06536 524-795 F620S/C656G limits assumed)
The assay is described as follows: β-galactosidase activity assay, strain V494Y.
Source text: as §1, §2

For a further assay, the target named is T8, LexA rGR2 / B42 eDHFR (UniProt P06536+P0ABQ4, C656G/F620S).
T8 construct: rat Glucocorticoid Receptor (aa 524-795) with point mutations; expressed in transfected cells; host or cells: S. cerevisiae FY250
T8 sequence (P06536 524-795 F620S/C656G limits assumed): T1 sequence (P06536 524-795 F620S/C656G limits assumed)
T8 sequence (P0ABQ4 1-159): T1 sequence (P0ABQ4 1-159)
Put plainly: β-galactosidase activity assay, strain V505Y.
Source text: as §1, §2

The target of assay [8] is T9, LexA (GSG)2mDHFR / B42 gly6rGR2 (UniProt P00375+P06536, C656G/F620S).
T9 construct: expressed in transfected cells; host or cells: S. cerevisiae FY250 with pMW106 lacZ reporter
T9 sequence (P00375 1-187): T3 sequence (P00375 1-187)
T9 sequence (P06536 524-795 F620S/C656G limits assumed): T1 sequence (P06536 524-795 F620S/C656G limits assumed)
The assay is described as follows: β-galactosidase activity assay, strain V503Y.
Source text: as §1, §2

The target of assay [9] is T10, LexA (GSG)2rGR2 / B42 (GSG)2eDHFR (UniProt P06536+P0ABQ4, C656G/F620S).
T10 construct: rat Glucocorticoid Receptor (aa 524-795) with point mutations; expressed in transfected cells; host or cells: S. cerevisiae FY250
T10 sequence (P06536 524-795 F620S/C656G limits assumed): T1 sequence (P06536 524-795 F620S/C656G limits assumed)
T10 sequence (P0ABQ4 1-159): T1 sequence (P0ABQ4 1-159)
The assay is described as follows: β-galactosidase activity assay, strain V510Y.
Source text: as §1, §2

`C[C@@H]1C[C@H]2C3CCC4=CC(=O)C=C[C@]4(C)[C@@]3(F)[C@@H](O)C[C@]2(C)[C@@]1(O)C(=O)NCCSCCCCCCCCCCSCC[C@H](NC(=O)c1ccc(N(C)Cc2cnc3nc(N)nc(N)c3n2)cc1)C(=O)O` (stereo partly shown) [D10M]: the B-gal activity was 2028 β-galactosidase units in assay [1]; 4013 β-galactosidase units in assay [2]; −60 β-galactosidase units in assay [3]; 308 β-galactosidase units in assay [4]; 740 β-galactosidase units in [5]; 9993 β-galactosidase units in assay [6]. The B-gal activity in assay [7] is recorded as 9398 β-galactosidase units; at LexA rGR2 / B42 eDHFR it was 1160 β-galactosidase units; in [8] it was 1132 β-galactosidase units; in assay [9] it was 2314 β-galactosidase units.
